Experimental findings from patent US9828350B2, “5,6-dihydro-2H-[1,4]oxazin-3-yl-amine derivatives useful as inhibitors of beta-secretase (BACE)” (Janssen Pharmaceutica NV, priority 2010, dated 2017) are described below.

For one data set, the system named is Abeta total. The data set is described as follows: Cellular αLisa assay in SKNBE2 cells, Abeta total. It is filed as cell-based, human. The conditions noted are these: Homo sapiens, SKNBE2, 18 h, incubated for 18 hours, read-out: Cellular αLisa assay in SKNBE2 cells Abetatotal pIC50 (converted). The method in brief: (§1)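 Human neuroblastoma SKNBE2 cells expressing wild-type hAPP695 were incubated with compound for 18 hours. Secreted Abeta total and Abeta 1-42 in medium were quantified by sandwich αLisa: biotinylated AbN/25 on streptavidin donor beads with Ab4G8 (total) or cAb42/26 (1-42) acceptor beads. Light emission read after 1 hour (ex 650 nm, em 615 nm).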

Data set [1] concerns Abeta 1-42. The data set is described as follows: Cellular αLisa assay in SKNBE2 cells, Abeta 1-42. It is filed as cell-based, human. The conditions noted are these: Homo sapiens, SKNBE2, 18 h, incubated for 18 hours, read-out: Cellular αLisa assay in SKNBE2 cells Abeta 42 pIC50 (converted). The method in brief:
as §1

The subject of another data set is Aβ42. The data set is described as follows: Demonstration of in vivo efficacy, brain Aβ42 lowering (ELISA). The conditions noted are these: mouse brain, 30 mpk, s.c., 4 h.
Data set [2] in a line: Single dose pharmacology in the Beagle dog, pharmacokinetic (PK) follow up. It is filed as in vivo. The conditions noted are these: single dose 20 mg/kg; for concentration at 24 h: both sexes. The protocol:
Single Dose Pharmacology in the Beagle Dog
Compound 86 was tested to evaluate the effect on the beta-amyloid profile in cerebrospinal fluid (CSF) of dogs after a single dose, in combination with pharmacokinetic (PK) follow up and limited safety evaluation. 6 Beagle dogs (3 male, 3 female) were dosed with vehicle (4 ml/kg of an aqueous suspension of 20% cyclodextrin and Tween) and 6 Beagle dogs (3 male, 3 female) were dosed with compound 86 (20 mg/kg in 2 ml/kg of an aqueous 20% cyclodextrin solution) on an empty stomach. CSF was taken in conscious animals directly from the lateral ventricle via a cannula which was screwed in the skull and covered with subcutaneous tissue and skin, before and at 4, 8 and 24 hours after dosing. 8 Hours after dosing the animals got access to their regular meal for 30 minutes. Blood was taken for PK follow up (0.5, 1, 2, 4, 8 and 24 hours) and at the time of the CSF sampling, samples for serum analysis were taken. An additional sample for serum analysis was taken 10 days after dosing. The CSF samples were used for measurement of Abeta 1-37, Abeta 1-38, Abeta 1-40 and Abeta 1-42.

The test system of a further data set is Abeta 1-40. The conditions noted are these: 20 mg/kg, 24 h.
The subject of data set [3] is Abeta 1-42. Conditions: 20 mg/kg, 24 h.

Molecules are shown by their SMILES. Where two headings read alike, the source gives them in different places.

For `C[C@]1(c2cccc(NC(=O)c3ccc(Cl)cn3)c2)N=C(N)CO[C@@H]1F` (single isomer, unassigned) [Compound 86, (R*,R*)—N-[3-(5-amino-2-fluoro-3-methyl-3,6-dihydro-2H-1,4-oxazin-3-yl)phenyl]-5-chloropyridine-2-carboxamide], the melting point amounted to 157.7 °C. For the same compound, the IC50 with Abeta total was 6.17 nM. In addition, the IC50 in the data set with Abeta 1-42 [1] is 6.92 nM. Moreover, the “Aβ42 (% Ctrl)_Mean” value in the data set on Aβ42 was found to be 60 % Ctrl. Moreover, the concentration at 24 h in data set [2] (CSF, at 24 h, read-out: CSF levels) came to 45 ng/mL. For the same compound, the concentration at 24 h in data set [2] (plasma, up to at least 24 h post dosing, read-out: plasma levels) stood at 1440 ng/mL. For the same compound, in data set [2], the clearance entry was “slow clearance”. Besides, the “decrease in Abeta 1-40 in CSF compared to own baseline” value with Abeta 1-40 was over 90%. Further, in the data set with Abeta 1-42 [3], the “decrease in Abeta 1-42 in CSF compared to own baseline” value was over 90%.
